Measured values: paper PMC10917278, “Structural insights into the modulation Of SOD1 aggregation By a fungal metabolite Phialomustin-B: Therapeutic potential in ALS” (PLOS ONE, 2024)

How the values were obtained:
SOD1^L42R = molecular target: T1, SOD1^L42R (Homo sapiens, UniProt P00441, L43R); assay: MST binding assay, site-specific mutant SOD1^L42R; conditions: PBS buffer, mutant 25 nM, PB 30.5 nM to 250 μM, 25 °C, SEM n = 3, read-out: binding affinity Kd
T1 construct: His-tag (cleaved yes); made in house; host or cells: E. coli BL21-DE3
T1 sequence (P00441 whole entry L43R): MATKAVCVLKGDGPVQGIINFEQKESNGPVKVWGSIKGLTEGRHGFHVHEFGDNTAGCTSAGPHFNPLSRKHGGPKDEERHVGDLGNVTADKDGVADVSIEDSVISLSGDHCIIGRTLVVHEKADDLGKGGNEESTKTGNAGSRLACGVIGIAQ
Method: (§1) To further validate the binding of PB to SOD1, site-directed mutagenesis was performed for the interacting residues at the binding sites of PB. The point mutations generated on the SOD1 protein are K9F, G10P, L42R, and A123F. The MST assay was carried out on these mutants against PB (Fig 5). The dose-response curve with the highest signal-to-noise ratio, high response amplitude, and lowest error rate was selected for measuring the binding affinity (Kd) value. […] Binding at the electrostatic loop is affected majorly by mutating residues at A123 to phenylalanine and L42 to arginine. […] Taken together, the binding affinities of these mutants confirm the ligand bindings at these sites of SOD1 are specific.
(§2) Fig 5 MST interaction analysis of fluorescently labeled SOD1 mutants against PB. The binding of PB to fluorescently Cys-labeled SOD1- variants is quantified in PBS buffer. The concentration of PB varied from 30.5 nM to 250 μM, while the respective mutants were kept constant at 25 nM. MST experiments were conducted at 20% LED excitation and medium MST power at 25 °C. […] Error bars indicate the standard error of the mean, SEM (n = 3). […] The ligand PB is printed only in the titles of panels a-d, so the mutant names are used as the substance labels.
(§3) Binding studies were performed for SOD1^WT and the ligands using microscale thermophoresis (MST). […]

SOD1^G10P = molecular target: T2, SOD1^G10P (Homo sapiens, UniProt P00441, G11P); assay: MST binding assay, site-specific mutant SOD1^G10P; conditions: PBS buffer, mutant 25 nM, PB 30.5 nM to 250 μM, 25 °C, SEM n = 3, read-out: binding affinity Kd
T2 construct: His-tag (cleaved yes); made in house; host or cells: E. coli BL21-DE3
T2 sequence (P00441 whole entry G11P): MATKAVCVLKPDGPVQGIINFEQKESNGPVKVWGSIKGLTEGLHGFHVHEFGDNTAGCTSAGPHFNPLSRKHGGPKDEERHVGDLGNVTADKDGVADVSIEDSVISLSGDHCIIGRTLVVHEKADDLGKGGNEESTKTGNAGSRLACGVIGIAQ
Method: as §1, §2, §3

CCCC[C@H](C)/C=C(C)/C=C/C(=O)O [PB, (S, 2E, 4E)-4,6-dimethyldeca-2,4-dienoic acid]
Kd (SOD1^L42R): 225 ± 4.29 µM
Kd (SOD1^G10P): 15.9 ± 2.65 µM
